Experimental data: ChEMBL document CHEMBL1629576, “Microanalysis of beta-lactam antibiotics and vancomycin in plasma for pharmacokinetic studies in neonates” (Antimicrob Agents Chemother, 2009)

Columns and labels:
Type in all cases: ADME, organism-based
[1] = Volume of distribution in extracorporeal membrane oxygenation-treated human neonatal plasma at 50 mg/kg BID by UPLC-MS/MS analysis; parameters: dose 50 mg/kg
[2] = Elimination rate constant in extracorporeal membrane oxygenation-treated human neonatal plasma treatment at 50 mg/kg BID by UPLC-MS/MS analysis; parameters: dose 50 mg/kg
Plasma [3] = test: Intercompartmental clearance rate from peripheral to central side of extracorporeal membrane oxygenation-treated human neonatal plasma at 20 mg/kg, po by UPLC-MS/MS analysis; parameters: dose 20 mg/kg, route oral; conditions: in vivo
Plasma [4] = test: Intercompartmental clearance rate from central to peripheral side of extracorporeal membrane oxygenation-treated human neonatal plasma at 20 mg/kg, po by UPLC-MS/MS analysis; parameters: dose 20 mg/kg, route oral; conditions: in vivo
Plasma [5] = test: Volume of distribution in extracorporeal membrane oxygenation-treated human neonatal plasma at 20 mg/kg, po by UPLC-MS/MS analysis; parameters: dose 20 mg/kg, route oral; conditions: in vivo
[6] = Volume of distribution in extracorporeal membrane oxygenation-treated human neonatal plasma at 25 mg/kg SID by UPLC-MS/MS analysis; parameters: dose 25 mg/kg
[7] = Elimination rate constant in extracorporeal membrane oxygenation-treated human neonatal plasma at 25 mg/kg QID by UPLC-MS/MS analysis; parameters: dose 25 mg/kg

Structure (SMILES): CO/N=C(\C(=O)N[C@@H]1C(=O)N2C(C(=O)O)=C(COC(C)=O)CS[C@H]12)c1csc(N)n1 [CEFOTAXIME]
- Vd [1]: 0.912 L/kg
- k el [2]: 5.47e-05 s⁻¹

Structure (SMILES): CN[C@H](CC(C)C)C(=O)N[C@H]1C(=O)N[C@@H](CC(N)=O)C(=O)N[C@H]2C(=O)N[C@H]3C(=O)N[C@H](C(=O)N[C@H](C(=O)O)c4cc(O)cc(O)c4-c4cc3ccc4O)[C@H](O)c3ccc(c(Cl)c3)Oc3cc2cc(c3O[C@@H]2O[C@H](CO)[C@@H](O)[C@H](O)[C@H]2O[C@H]2C[C@](C)(N)[C@H](O)[C@H](C)O2)Oc2ccc(cc2Cl)[C@H]1O [VANCOMYCIN]
- k21 (Plasma [3]): 2.634 h⁻¹
- k12 (Plasma [4]): 1.5 h⁻¹

Structure (SMILES): CC1(C)S[C@@H]2[C@H](NC(=O)[C@H](N)c3ccc(O)cc3)C(=O)N2[C@H]1C(=O)O [AMOXICILLIN]
- Vd (Plasma [5]): 1.03 L/kg
- Vd [6]: 0.713 L/kg
- k el [7]: 9.17e-05 s⁻¹
